IC50 data for nine compounds are collected here from patent US12686692B2, “KRas G12D inhibitors” (Mirati Therapeutics, Inc., priority 2020, dated 2026).

This test deals with KRas G12D (Homo sapiens, UniProt P01116, G12D). Nature of the test: KRas G12D Binding Assay (TR-FRET displacement of labeled tracer). Also on record: corresponding to amino acids 1:169, produced at Array BioPharma; biotin (protein is biotinylated). As to conditions: TR-FRET displacement of Cy5 labelled tracer, biotinylated GDP-loaded KRAS G12D (aa 1:169), 60 minute incubation at 22° C. The method, then: This Example illustrates that exemplary compounds of the present invention bind to KRas G12D and are capable of displacing a labeled tracer ligand occupying the KRas G12D binding site.
The ability of a compound to bind to KRAS G12D was measured using a TR-FRET displacement assay. Biotinylated GDP-loaded recombinant human KRAS G12D (corresponding to amino acids 1:169, produced at Array BioPharma) was incubated with a custom-made Cy5 labelled tracer, europium labelled streptavidin and compound (2% DMSO final) in buffer (50 mM HEPES [pH 7.5], 5 mM MgCl2, 0.005% Tween-20 & 1 mM DTT). After a 60 minute incubation at 22° C., the reaction was measured using a PerkinElmer EnVision multimode plate reader via TR-FRET dual wavelength detection, and the percent of control (POC) calculated using a ratiometric emission factor. […] The POC values were fit to a 4-parameter logistic curve and the IC50 value was determined as the concentration where the curve crosses 50 POC.
On the technique in general: Time-resolved FRET reads energy transfer from a long-lived donor to a nearby acceptor.

KRas G12D, sequence (P01116 1-169 isoform P01116-2 G12D): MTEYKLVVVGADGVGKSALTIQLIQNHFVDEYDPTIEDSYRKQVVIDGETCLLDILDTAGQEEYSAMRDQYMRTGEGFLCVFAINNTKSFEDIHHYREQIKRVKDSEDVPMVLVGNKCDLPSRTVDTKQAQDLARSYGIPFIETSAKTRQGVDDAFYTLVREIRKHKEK

For `CCc1c(F)ccc2cc(O)cc(N3CCc4c(nc(OC[C@@]56CCCN5C[C@H](F)C6)nc4N4C[C@H]5CC[C@@H](C4)N5)C3)c12` [Example 118, 4-(4-((1R,5S)-3,8-diazabicyclo[3.2.1]octan-3-yl)-2-(((2R,7aS)-2-fluorohexahydro-1H-pyrrolizin-7a-yl)methoxy)-5,6-dihydropyrido[3,4-d]pyrimidin-7(8H)-yl)-5-ethyl-6-fluoronaphthalen-2-ol], the IC50 came to 0.0021 µM. Consider `Brc1cc(N2CCc3c(nc(OCC45CCCN4CCC5)nc3N3C[C@H]4CC[C@@H](C3)N4)C2)c2ccccc2c1` [Example 111, 4-((1R,5S)-3,8-diazabicyclo[3.2.1]octan-3-yl)-7-(3-bromonaphthalen-1-yl)-2-((tetrahydro-1H-pyrrolizin-7a(5H)-yl)methoxy)-5,6,7,8-tetrahydropyrido[3,4-d]pyrimidine], for which the concentration for half-maximal inhibition (IC50) was 1.05 µM.

For `CCCCc1cccc2cccc(N3CCc4c(nc(OC[C@@H]5CCCN5C)nc4N4C[C@H]5CC[C@@H](C4)N5)C3)c12` [Example 81, 4-((1R,5S)-3,8-diazabicyclo[3.2.1]octan-3-yl)-7-(8-butylnaphthalen-1-yl)-2-(((S)-1-methylpyrrolidin-2-yl)methoxy)-5,6,7,8-tetrahydropyrido[3,4-d]pyrimidine], the IC50 is 0.71 µM.

`CN1CCC[C@H]1COc1nc2c(c(N3CC4CCC(CC#N)(C3)N4)n1)CCN(c1cccc3cccc(Cl)c13)C2` (stereo partly drawn) [Example 42, 2-(3-(7-(8-chloronaphthalen-1-yl)-2-(((S)-1-methylpyrrolidin-2-yl)methoxy)-5,6,7,8-tetrahydropyrido[3,4-d]pyrimidin-4-yl)-3,8-diazabicyclo[3.2.1]octan-1-yl)acetonitrile]: the IC50 is 1.8 µM. With `c1cc2c(c(N3CCc4c(nc(OCC56CCCN5CCC6)nc4N4C[C@H]5CC[C@@H](C4)N5)C3)c1)C(C1CC1)CC2` (stereo partly drawn) [Example 102, 4-((1R,5S)-3,8-diazabicyclo[3.2.1]octan-3-yl)-7-(3-cyclopropyl-2,3-dihydro-1H-inden-4-yl)-2-((tetrahydro-1H-pyrrolizin-7a(5H)-yl)methoxy)-5,6,7,8-tetrahydropyrido[3,4-d]pyrimidine] the figure was 0.654 µM.

`CNC(=O)OC[C@H]1CCC2(COc3nc4c(c(N5CC6CCC(C5)N6)n3)CCN(c3cccc5cccc(C)c35)C4)CCCN12` (stereo partly drawn) [Example 21, (7a-(((4-((1R,5S)-3,8-diazabicyclo[3.2.1]octan-3-yl)-7-(8-methylnaphthalen-1-yl)-5,6,7,8-tetrahydropyrido[3,4-d]pyrimidin-2-yl)oxy)methyl)hexahydro-1H-pyrrolizin-3-yl)methyl methylcarbamate (trans enantiomers)] registered an IC50 of 0.0123 µM.

In turn, `c1cc2c(c(N3CCc4c(nc(OCC56CCCN5CCC6)nc4N4C[C@H]5CC[C@@H](C4)N5)C3)c1)CCC2` [Example 104, 4-((1R,5S)-3,8-diazabicyclo[3.2.1]octan-3-yl)-7-(2,3-dihydro-1H-inden-4-yl)-2-((tetrahydro-1H-pyrrolizin-7a(5H)-yl)methoxy)-5,6,7,8-tetrahydropyrido[3,4-d]pyrimidine] gave an IC50 of 0.756 µM. `CN1CCC[C@H]1COc1nc2c(c(N3CC4CC(O)(C(F)F)C(C3)N4)n1)CCN(c1cccc3cccc(Cl)c13)C2` (stereo partly drawn) [Example 41, 3-(7-(8-chloronaphthalen-1-yl)-2-(((S)-1-methylpyrrolidin-2-yl)methoxy)-5,6,7,8-tetrahydropyrido[3,4-d]pyrimidin-4-yl)-6-(difluoromethyl)-3,8-diazabicyclo[3.2.1]octan-6-ol] displayed an IC50 of 3.13 µM.

`Clc1ccc2cccc(N3CCc4c(nc(OCC56CCCN5CCC6)nc4N4C[C@H]5CC[C@@H](C4)N5)C3)c2c1Cl` [Example 12, 4-((1R,5S)-3,8-diazabicyclo[3.2.1]octan-3-yl)-7-(7,8-dichloronaphthalen-1-yl)-2-((tetrahydro-1H-pyrrolizin-7a(5H)-yl)methoxy)-5,6,7,8-tetrahydropyrido[3,4-d]pyrimidine] displayed an IC50 of 0.345 µM.

Broadly, the IC50 is the point on the concentration scale where inhibition reaches its midpoint. A low value points to inhibition by little substance.
